Experimental data as given in PMC3873546, “Two Distinct Determinants of Ligand Specificity in T1R1/T1R3 (the Umami Taste Receptor)” (The Journal of Biological Chemistry, 2013).

Columns and labels:
[1] = system: T1, hT1R1(m.371–380) (with mT1R3); conditions: pH 7.4, rG15i2, no IMP; orthosteric site agonist
T1 construct: gene TAS1R1

baboon T1R1 (with mT1R3) = system: T2, baboon T1R1 (with mT1R3); conditions: pH 7.4, rG15i2, no IMP; orthosteric site agonist
T2 construct: gene TAS1R1

hT1R1/mT1R3 = biological target: T3, hT1R1/mT1R3 (Homo sapiens, UniProt Q7RTX1); experiment: mt-clytin-II Ca2+ luminescence, HEK293T; assay type: cell-based; conditions: dose-response curve and 50 mM response, pH 7.4, no IMP; weak agonist
T3 construct: gene TAS1R1; mixed-species heteromer, full-length human T1R1 (841 residues) with mouse T1R3, pEAK10, HEK293T with rG15i2 and mt-apoclytin-II; with Taste receptor type 1 member 3 (Mus musculus)
T3 sequence (Q7RTX1 21-841): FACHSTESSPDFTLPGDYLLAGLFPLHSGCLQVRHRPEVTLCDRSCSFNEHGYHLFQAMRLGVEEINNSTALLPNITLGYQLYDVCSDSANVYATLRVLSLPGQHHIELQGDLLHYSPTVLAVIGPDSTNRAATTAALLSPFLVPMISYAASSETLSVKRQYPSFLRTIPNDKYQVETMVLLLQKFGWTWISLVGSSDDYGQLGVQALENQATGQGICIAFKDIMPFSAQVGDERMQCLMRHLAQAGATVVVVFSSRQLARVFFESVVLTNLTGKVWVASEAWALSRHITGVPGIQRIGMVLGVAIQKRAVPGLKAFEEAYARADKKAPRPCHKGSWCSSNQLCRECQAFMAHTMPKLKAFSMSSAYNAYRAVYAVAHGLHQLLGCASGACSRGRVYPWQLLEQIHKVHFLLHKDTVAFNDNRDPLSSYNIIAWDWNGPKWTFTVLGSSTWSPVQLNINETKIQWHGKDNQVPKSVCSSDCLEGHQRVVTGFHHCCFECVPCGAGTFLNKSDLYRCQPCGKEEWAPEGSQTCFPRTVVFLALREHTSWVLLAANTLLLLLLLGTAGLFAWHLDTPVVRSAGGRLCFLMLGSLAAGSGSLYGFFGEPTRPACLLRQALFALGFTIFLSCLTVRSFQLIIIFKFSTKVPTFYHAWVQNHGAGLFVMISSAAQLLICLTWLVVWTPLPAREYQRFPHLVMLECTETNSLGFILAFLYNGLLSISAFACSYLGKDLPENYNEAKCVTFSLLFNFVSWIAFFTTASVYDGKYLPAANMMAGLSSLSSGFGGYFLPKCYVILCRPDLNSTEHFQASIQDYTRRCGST
T3 sequence (Q925D8 21-858 partner): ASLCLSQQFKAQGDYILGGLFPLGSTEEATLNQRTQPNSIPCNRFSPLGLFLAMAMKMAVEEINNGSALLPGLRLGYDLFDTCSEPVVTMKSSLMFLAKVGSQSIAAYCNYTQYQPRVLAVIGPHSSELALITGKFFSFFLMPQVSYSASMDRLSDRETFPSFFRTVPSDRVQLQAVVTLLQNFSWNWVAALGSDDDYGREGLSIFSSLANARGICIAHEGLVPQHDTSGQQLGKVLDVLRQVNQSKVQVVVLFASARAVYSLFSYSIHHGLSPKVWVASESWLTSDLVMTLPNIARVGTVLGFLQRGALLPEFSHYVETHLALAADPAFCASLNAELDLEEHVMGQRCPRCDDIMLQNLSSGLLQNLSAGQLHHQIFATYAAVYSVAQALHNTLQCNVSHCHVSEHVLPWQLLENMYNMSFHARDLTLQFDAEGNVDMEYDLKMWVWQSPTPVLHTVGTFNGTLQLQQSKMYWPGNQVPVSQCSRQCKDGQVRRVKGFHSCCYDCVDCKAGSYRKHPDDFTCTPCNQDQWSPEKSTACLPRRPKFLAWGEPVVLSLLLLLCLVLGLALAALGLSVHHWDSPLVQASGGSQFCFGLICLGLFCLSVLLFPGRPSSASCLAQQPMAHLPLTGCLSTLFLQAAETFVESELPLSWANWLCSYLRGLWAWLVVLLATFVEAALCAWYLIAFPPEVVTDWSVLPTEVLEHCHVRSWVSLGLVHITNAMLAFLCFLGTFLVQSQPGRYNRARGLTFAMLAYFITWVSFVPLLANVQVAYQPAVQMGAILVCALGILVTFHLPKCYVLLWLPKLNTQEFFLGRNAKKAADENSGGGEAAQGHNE

[2] = biological target: T4, squirrel monkey T1R1 (with mT1R3) (Saimiri boliviensis, UniProt A0A2K6TN71); experiment: mt-clytin-II Ca2+ luminescence, HEK293T; assay type: cell-based; conditions: dose-response curve only, pH 7.4, no IMP
T4 construct: full-length squirrel monkey T1R1 assembled from genomic exons (liver DNA); HEK293T with mouse T1R3; with Taste receptor type 1 member 3 (Mus musculus)
T4 sequence (A0A2K6TN71 21-841): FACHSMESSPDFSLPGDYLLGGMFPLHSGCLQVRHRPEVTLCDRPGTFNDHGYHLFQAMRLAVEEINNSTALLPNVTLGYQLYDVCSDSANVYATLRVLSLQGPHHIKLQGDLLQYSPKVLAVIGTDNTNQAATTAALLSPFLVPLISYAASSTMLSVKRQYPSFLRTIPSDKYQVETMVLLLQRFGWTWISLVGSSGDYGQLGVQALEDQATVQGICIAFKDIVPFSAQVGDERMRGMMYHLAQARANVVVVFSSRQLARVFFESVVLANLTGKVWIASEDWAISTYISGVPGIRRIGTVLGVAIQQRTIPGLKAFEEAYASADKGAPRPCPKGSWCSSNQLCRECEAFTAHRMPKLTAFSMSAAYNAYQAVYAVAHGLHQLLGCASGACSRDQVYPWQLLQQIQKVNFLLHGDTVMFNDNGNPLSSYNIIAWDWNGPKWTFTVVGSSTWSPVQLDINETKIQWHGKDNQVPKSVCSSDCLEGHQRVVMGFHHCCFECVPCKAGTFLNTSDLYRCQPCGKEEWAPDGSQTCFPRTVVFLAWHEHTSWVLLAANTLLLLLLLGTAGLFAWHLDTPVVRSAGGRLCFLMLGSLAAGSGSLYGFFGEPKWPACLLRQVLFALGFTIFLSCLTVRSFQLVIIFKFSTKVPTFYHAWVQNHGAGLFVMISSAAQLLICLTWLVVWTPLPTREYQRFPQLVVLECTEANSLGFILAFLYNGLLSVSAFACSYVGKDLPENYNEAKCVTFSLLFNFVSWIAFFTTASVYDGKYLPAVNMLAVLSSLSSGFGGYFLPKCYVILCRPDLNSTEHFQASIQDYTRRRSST
T4 sequence (Q925D8 21-858 partner): T3 sequence (Q925D8 21-858 partner)

`N[C@@H](CCC(=O)O)C(=O)O` [L-Glu] showed an EC50 [1] of 110 ± 10 µM and an EC50 (baboon T1R1 (with mT1R3)) of 1800 ± 400 µM.
For `C[C@H](N)C(=O)O` [L-Ala], the “mt-clytin-II Ca2+ luminescence, HEK293T” value (hT1R1/mT1R3) was “the dose-response curves of human (B), macaque (C), baboon (D)” and the “mt-clytin-II Ca2+ luminescence, HEK293T” value [2] was “the squirrel monkey T1R1 demonstrated the greatest L-Ala potency among the four primate T1R1 receptors”.
